According to patent publication US9630947B2, “Therapeutic compounds and related methods of use” (OTSUKA PHARMACEUTICAL CO., LTD., priority 2009, dated 2017):
pIC50: −log10 of the molar value.

molecular target: T1, purified STEP46 enzyme (Homo sapiens, UniProt P54829); test: STEP46 biochemical assay (DiFMUP fluorescence phosphatase assay); conditions: DiFMUP 10 μM, read-out: STEP IC50
T1 sequence (P54829 1-565): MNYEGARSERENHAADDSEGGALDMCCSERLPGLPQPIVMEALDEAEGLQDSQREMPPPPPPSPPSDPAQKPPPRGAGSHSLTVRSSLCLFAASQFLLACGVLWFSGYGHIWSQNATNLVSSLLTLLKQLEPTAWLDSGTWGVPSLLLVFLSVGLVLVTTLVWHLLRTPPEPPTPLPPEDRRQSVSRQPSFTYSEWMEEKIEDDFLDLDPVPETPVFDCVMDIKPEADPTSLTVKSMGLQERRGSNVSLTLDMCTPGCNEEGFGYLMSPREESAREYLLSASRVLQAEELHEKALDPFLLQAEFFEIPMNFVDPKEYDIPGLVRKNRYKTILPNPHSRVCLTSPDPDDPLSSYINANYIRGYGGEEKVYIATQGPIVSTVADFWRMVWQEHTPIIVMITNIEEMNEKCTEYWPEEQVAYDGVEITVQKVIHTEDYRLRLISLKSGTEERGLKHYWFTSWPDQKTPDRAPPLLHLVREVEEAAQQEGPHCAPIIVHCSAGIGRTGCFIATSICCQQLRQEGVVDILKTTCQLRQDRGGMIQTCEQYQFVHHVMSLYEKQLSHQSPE
Protocol: STEP46 Biochemical Assays
Serial dilutions of compounds were performed in 100% DMSO and 1 uL of compounds were dispensed into 384-well black polystyrene plates (Corning, NY). Compounds were incubated with 24 uL of buffer containing 50 mM Hepes, 1 mM DTT, 0.02% Brij35, 1 ng/well purified STEP46 enzyme for 30 min at room temperature. The reaction was initiated by addition of 25 uL of DiFMUP (6, 8-difluoro-4-methylumbelliferyl phosphate) (InVitrogen, CA) with a final concentration of 10 μM and incubated at 27° C. for 90 min. Final DMSO concentration is 2%. Plates were read with florescence intensity at excitation/emission of 360/460 nm using a PheraStar plate reader (BMG Labtech, NC).
Data were expressed as percentage (%) inhibition of enzyme activity. 0% inhibition is defined as the RFUs (relative fluorescence units) in the absence of compounds and 100% inhibition is defined as RFUs in the absence of STEP46 enzyme. IC50 values of compounds with inhibitory activity against STEP46 were determined by GraphPad Prism (version 4.03) using four parameter logistic equation. Some compounds act as activators. For compounds showing STEP46 enzymatic activation, data are represented as percentage of inhibition but with negative values at three representative concentrations (25, 50 and 100 uM).

| pIC50 | SMILES |
| --- | --- |
| > 6.00 | COc1cc(OC)cc(-c2ccc3nc(-c4cccnc4)nc(Nc4ccc(F)c(Cl)c4)c3c2)c1 [Compound 642] |
| 5.00 to 6.00 | Cc1cc(Cl)cc2c(Nc3cc(Cl)cc(Cl)c3)nc(-c3cnccn3)nc12 [Compound 1229] |
| 5.00 to 6.00 | COc1ccc2nc(-c3cccnc3)nc(Nc3nc(-c4ccc(Cl)cc4)cs3)c2c1 [Compound 400] |
| 5.00 to 6.00 | COc1ccc2nc(-c3cccnc3)nc(Nc3nc(-c4cccc(OC(F)(F)F)c4)cs3)c2c1 [Compound 455] |
| 5.00 to 6.00 | FC(F)Oc1cc(Cl)cc(Nc2nc(-c3ccnnc3)nc3ccccc23)c1 [Compound 1212] |
| 5.00 to 6.00 | COc1ccc2nc(-c3cccnc3)nc(Nc3nnc(-c4ccc(F)cc4)s3)c2c1 [Compound 423] |
| 5.00 to 6.00 | COc1ccc2nc(-c3cccnc3)nc(Nc3ccccc3C(=O)NCc3occc3C)c2c1 [Compound 901] |
| > 6.00 | Fc1ccc(Nc2nc(-c3cccnc3)nc3ccc(-c4cncnc4)cc23)cc1Cl [Compound 652] |
| > 6.00 | Fc1ccc(Nc2nc(-c3cccnc3)nc3ccc(-c4ccc5c(c4)OCO5)cc23)cc1Cl [Compound 662] |
| 5.00 to 6.00 | COc1ccc2nc(-c3ccnnc3)nc(Nc3ccccc3C(N)=O)c2c1 [Compound 1198] |
| 5.00 to 6.00 | CCNC(=O)c1sc(Nc2nc(-c3cccnc3)nc3ccc(OC)cc23)nc1-c1ccccc1 [Compound 1126] |
| > 6.00 | COc1ccc2nc(-c3cccnc3)nc(Nc3ccc4c(C)cc(=O)[nH]c4c3)c2c1 [Compound 333] |
| < 5.00 | CNc1nc(-c2cccnc2)nc2cc(-c3ccccc3F)c(C)cc12 [Compound 1403] |
| < 5.00 | CN(C)c1nc(-c2cccnc2)nc2ccc(-c3ccccc3[N+](=O)[O-])cc12 [Compound 1334] |
| 5.00 to 6.00 | COc1ccc2nc(-c3cnccn3)nc(Nc3ccc(F)c(F)c3)c2c1 [Compound 1192] |
| 5.00 to 6.00 | Cc1cccc2c(Nc3cccc(C#N)c3)nc(-c3cnccn3)nc12 [Compound 1181] |
| > 6.00 | CN(C)c1ccc(-c2ccc3nc(-c4cccnc4)nc(Nc4ccc(F)c(Cl)c4)c3c2)cc1 [Compound 668] |
| < 5.00 | FC1(F)Oc2ccc(Nc3nc(-c4cncnc4)nc4ccccc34)cc2O1 [Compound 1173] |
| > 6.00 | Fc1ccc(Nc2nc(-c3cccnc3)nc3cc(-c4ccccc4F)ccc23)cc1Cl [Compound 687] |
| 5.00 to 6.00 | Clc1cc(Cl)cc(Nc2nc(-c3cnccn3)nc3ccc(Cl)cc23)c1 [Compound 1161] |
| > 6.00 | N#Cc1ccccc1-c1ccc2nc(-c3cccnc3)nc(Nc3ccc(F)c(Cl)c3)c2c1 [Compound 639] |
| 5.00 to 6.00 | COc1ccc2nc(-c3cnccn3)nc(Nc3ccc(F)c(Cl)c3)c2c1 [Compound 1191] |
| 5.00 to 6.00 | CN(C)c1nc(-c2cccnc2)nc2ccc(-c3ccccc3C#N)cc12 [Compound 1337] |
| > 6.00 | Fc1ccc(Nc2nc(-c3ccnnc3)nc3ccccc23)cc1Cl [Compound 1216] |

| pIC50 | SMILES |
| --- | --- |
| < 5.00 | FC(F)Oc1cccc(Nc2nc(-c3ccncn3)nc3ccccc23)c1 [Compound 1208] |
| 5.00 to 6.00 | COc1ccc2nc(-c3cccnc3)nc(Nc3cc(-c4ccc(Cl)cc4)nn3C)c2c1 [Compound 403] |
| < 5.00 | Fc1cccc(-c2ccc3nc(-c4cccnc4)nc(NC4CCCCC4)c3c2)c1F [Compound 1516] |
| 5.00 to 6.00 | Cc1cc(Cl)cc2c(Nc3ccc(F)c(Cl)c3)nc(-c3cnccn3)nc12 [Compound 1225] |
| 5.00 to 6.00 | CN(C)c1nc(-c2cccnc2)nc2ccc(-c3ccc([N+](=O)[O-])cc3)cc12 [Compound 1336] |
| < 5.00 | COc1ccc2nc(-c3cccnc3)nc(Nc3ccc4c(c3)OC(F)(F)C(F)(F)O4)c2c1 [Compound 322] |
| < 5.00 | CNc1nc(-c2cccnc2)nc2cc(-c3ccccc3Cl)ccc12 [Compound 1352] |
| 5.00 to 6.00 | CNc1nc(-c2cccnc2)nc2ccc(-c3ccc4sccc4c3)cc12 [Compound 1341] |
| > 6.00 | COc1cc(-c2ccc3nc(-c4cccnc4)nc(Nc4ccc(F)c(Cl)c4)c3c2)ccc1C [Compound 670] |
| > 6.00 | CCOc1ccc2nc(-c3cccnc3)nc(Nc3ccc4c(c3)NC(=O)CO4)c2c1 [Compound 336] |
| 5.00 to 6.00 | COc1ccc2nc(-c3cccnc3)nc(Oc3ccccc3)c2c1 [Compound 348] |
| 5.00 to 6.00 | COc1cc(-c2ccc3nc(-c4cccnc4)nc(Nc4ccc(F)c(Cl)c4)c3c2)cc(C(F)(F)F)c1 [Compound 664] |
| 5.00 to 6.00 | COc1ccc2nc(-c3cnccn3)nc(Nc3ccc(Cl)c(Cl)c3)c2c1 [Compound 1234] |
| 5.00 to 6.00 | CNc1nc(-c2cccnc2)nc2cc(-c3ccc(C)cc3)ccc12 [Compound 1362] |
| 5.00 to 6.00 | FC(F)(F)Oc1cccc(Nc2nc(-c3ccnnc3)nc3ccccc23)c1 [Compound 1182] |
| 5.00 to 6.00 | CCOc1ccc2nc(-c3ccnnc3)nc(Nc3cccc(OC(F)F)c3)c2c1 [Compound 1167] |
| 5.00 to 6.00 | Fc1ccc(Nc2nc(-c3cccnc3)nc3ccc(-c4ccsc4)cc23)cc1Cl [Compound 648] |
| 5.00 to 6.00 | Cc1cccc2c(Nc3cccc(OC(F)F)c3)nc(-c3ccnnc3)nc12 [Compound 1168] |
| 5.00 to 6.00 | Clc1cc(Cl)cc(Nc2nc(-c3cnccn3)nc3ccccc23)c1 [Compound 1222] |
| 5.00 to 6.00 | CNc1nc(-c2ccnnc2)nc2ccc(-c3ccc(F)cc3F)cc12 [Compound 1238] |
| 5.00 to 6.00 | COc1ccc2nc(-c3cccnc3)nc(Nc3ccc4ccn(C)c4c3)c2c1 [Compound 303] |
| > 6.00 | CN(C)c1ccc(-c2ccc3c(Nc4ccc(F)c(Cl)c4)nc(-c4cccnc4)nc3c2)cc1 [Compound 694] |
| > 6.00 | Clc1cc(Cl)cc(Nc2nc(-c3ccnnc3)nc3ccccc23)c1 [Compound 1223] |
| > 6.00 | CNc1nc(-c2cccnc2)nc2ccc(-c3ccc(C(C)=O)cc3OC)cc12 [Compound 1382] |

| pIC50 | SMILES |
| --- | --- |
| > 6.00 | COc1ccc2nc(-c3cccnc3)nc(Nc3nc(-c4cccc(F)c4F)cs3)c2c1 [Compound 452] |
| 5.00 to 6.00 | CNc1nc(-c2cccnc2)nc2c(C)c(-c3ccc(F)c(F)c3)ccc12 [Compound 1445] |
| 5.00 to 6.00 | N#Cc1cccc(Nc2nc(-c3ccnnc3)nc3ccccc23)c1 [Compound 1217] |
| 5.00 to 6.00 | CNc1nc(-c2cccnc2)nc2cc(-c3ccc(OC)cc3)c(C)cc12 [Compound 1413] |
| 5.00 to 6.00 | CNc1nc(-c2cccnc2)nc2cc(-c3ccc(F)cc3F)ccc12 [Compound 1372] |
| > 6.00 | NC(=O)c1ccccc1Nc1nc(-c2cccnc2)nc2cc(-c3cccc(F)c3F)ccc12 [Compound 705] |
| < 5.00 | FC(F)(F)Oc1cccc(Nc2nc(-c3cnccn3)nc3ccccc23)c1 [Compound 1150] |
| 5.00 to 6.00 | COc1ccc2nc(-c3cccnc3)nc(Nc3nc(C4CCCCC4)cs3)c2c1 [Compound 433] |
| 5.00 to 6.00 | CNc1nc(-c2cccnc2)nc2ccc(-c3cc(OC)ccc3OC)cc12 [Compound 1356] |
| > 6.00 | NC(=O)c1ccc(-c2ccc3nc(-c4cccnc4)nc(Nc4ccc(F)c(Cl)c4)c3c2)cc1 [Compound 656] |
| 5.00 to 6.00 | CNc1c(-c2cc(F)cc(F)c2)ccc2nc(-c3cccnc3)nc(C)c12 [Compound 1422] |
| > 6.00 | CN(C)c1cccc(-c2ccc3c(Nc4ccc(F)c(Cl)c4)nc(-c4cccnc4)nc3c2)c1 [Compound 693] |
| 5.00 to 6.00 | COc1ccc2nc(-c3cccnc3)nc(Nc3nc(-c4ccccc4OC)cs3)c2c1 [Compound 436] |
| 5.00 to 6.00 | NC(=O)c1ccccc1Nc1nc(-c2cnccn2)nc2cc(Cl)ccc12 [Compound 1143] |
| 5.00 to 6.00 | COc1ccc(-c2ccc3c(Nc4ccc(F)c(Cl)c4)nc(-c4cccnc4)nc3c2)cc1 [Compound 680] |
| > 6.00 | COc1ccc2nc(-c3cccnc3)nc(Nc3nc(-c4ccc(Cl)cc4)cs3)c2c1 [Compound 399] |
| > 6.00 | c1cncc(-c2ccc3nc(-c4cccnc4)nc(Nc4ccc5ccsc5c4)c3c2)c1 [Compound 313] |
| 5.00 to 6.00 | CNc1nc(-c2cncnc2)nc2ccc(-c3cccc(F)c3F)cc12 [Compound 1239] |
| > 6.00 | N#Cc1cccc(Nc2nc(-c3cccnc3)nc3cc(-c4ccc(F)cc4)ccc23)c1 [Compound 709] |
| 5.00 to 6.00 | COc1ccc2nc(-c3ccnnc3)nc(Nc3ccc(F)c(F)c3)c2c1 [Compound 1186] |
| 5.00 to 6.00 | CNc1nc(-c2cccnc2)nc2ccc(-c3ccc(F)cc3F)c(C)c12 [Compound 1286] |
| 5.00 to 6.00 | Clc1cc(Cl)cc(Nc2nc(-c3cnccn3)nc3cc(Cl)ccc23)c1 [Compound 1146] |
